# In patent US11712466B2, “Vaccine composition” (TOHOKU UNIVERSITY, priority 2017, dated 2023):
# “Also recorded” adds a separate entry of the source. Ends that are not written are not given here.
# Legend:
# [1] = test system: antigen peptide (peptide-conjugated BSA); assay: Antibody titer in blood of immunized mice by ELISA against antigen peptide; format: in vivo, mouse
# Description: C57BL/6J male mice aged 8 weeks were purchased from Charles River Laboratories Japan, Inc. After the delivery, the mice were reared in an environment where the room temperature and the light and dark cycles were maintained, and were provided with feed and water ad libitum. As a candidate sequence leading to activation of helper T cells by MHC class II, two peptide sequences: MTGSAADTHR (SEQ ID NO: 4; hereinafter, a peptide composed of the amino acid sequence is referred to as “MTG peptide”) and RRRQASPPRR (SEQ ID NO: 5; hereinafter, a peptide composed of the amino acid sequence is referred to as “RRR peptide”), each of which is not common to VASH1 in the VASH2 sequence were selected (FIG. 1). With respect to these peptides, peptide vaccines using KLH as a carrier were constructed. Note that for the conjugation of each peptide with KLH, a glutaraldehyde method was used. When the amount of the peptide introduced into KLH was measured for each of the obtained peptide vaccines, the amount of MTG was 66 to 70 nmol/mg of the conjugate, and the amount of RRR was 62 to 76 nmol/mg of the conjugate. Subsequently, 5 μg of KLH (control) and 20 μg of each of the KLH-antigen complexes were prepared with physiological saline so that the total amount was 50 μL, respectively, whereby KLH-mixed solutions were obtained. To each of the KLH-mixed solutions (50 μL), an equal amount of complete Freund's adjuvant was added. The obtained mixture was subcutaneously administered to the mice, whereby initial immunization was carried out. After 2 weeks from the administration, booster immunization was carried out by subcutaneously administering a mixture of each of the KLH-mixed solutions (50 μL) and an equal amount of incomplete Freund's adjuvant to the mice. Further, after 2 weeks from the booster immunization (after a total of 4 weeks), an increase in the antibody titer in the blood of each of the immunized mice was verified by ELISA.
# The measurement of the antibody titer by ELISA was carried out as follows. After 2 weeks from the booster immunization (after a total of 4 weeks), the blood was collected from the facial vein of each of the immunized mice, and the serum separated from the blood was subjected to ELISA. By using 50 mM carbonate buffer, peptide-conjugated BSA was prepared at 10 μg/mL, and further a recombinant VASH2 protein was prepared at 1 μg/mL, each of which was added at 50 μL/well, and the resultant was left to stand overnight at 4° C. After the solution in each well was removed, 5% skim milk was added at 150 μL/well. […] After 30 minutes, the reaction was stopped by adding 0.5 N H2SO4 at 50 μL/well, and an absorbance (450 nm) was measured using a microplate reader.
# [2] = test system: mouse melanoma cells (B16F1); assay: Subcutaneous implant model, tumor growth inhibitory effect (B16F1); format: in vivo; conditions: immunized C57BL/6J mice, cells implanted s.c. on day 29, measured 14 days after implantation
# Experimental: After 2 weeks from the administration of each peptide vaccine and incomplete Freund's adjuvant in Example 1 (on day 29 after the initial peptide vaccine administration), mouse-derived tumor cells were implanted in an immunized mouse, whereby a subcutaneous implant model was prepared. Specifically, mouse lung cancer cells (Lewis lung cancer cells (LLC)) or mouse melanoma cells (B16F1) (all have C57BL/6J as a genetic background) cultured in a RPMI+10% FBS medium were collected by centrifugation, and a cell suspension (1.0×10^8 cells/mL) was prepared with a serum-free medium, and 0.1 mL (1.0×10^7 cells/animal) of the cell suspension was implanted in a right axillary subcutaneous region of a mouse using a 27G injection needle and a syringe, whereby a subcutaneous implant model of tumor cells was prepared.
# mCD31 = assay: Gene expression in excised tumor tissue by real-time PCR, mCD31; format: in vivo, mouse; conditions: 20 μg vaccine; tumor excised two weeks after implantation
# Experimental: (§1) The mouse implanted with the tumor cells in Example 2 was sacrificed two weeks after implantation of the tumor cells, and a tumor was excised from the right axillary subcutaneous region. By using RNeasy Plus Kit (Qiagen, Inc.), extraction of the total RNA from the excised tumor and purification thereof were carried out. By using the obtained total RNA as a template, cDNA was synthesized by reverse transcription reaction. The cDNA was analyzed by performing real-time PCR using a mixed solution of the obtained cDNA and SYBR green (TAKARA BIO, Inc.).
# mTwist1 = assay: Gene expression in excised tumor tissue by real-time PCR, mTwist1; format: in vivo, mouse; conditions: tumor excised two weeks after implantation
# Experimental: as §1
substance,measurement,setting,value
MTG peptide vaccine: MTG peptide MTGSAADTHR (SEQ ID NO: 4) conjugated with KLH as carrier by a glutaraldehyde method (also: conjugated with KLH by glutaraldehyde),antibody titer against the antigen peptide,"[1]; Example 1: C57BL/6J mice, KLH-antigen complex s.c., Freund's adjuvant, serum 2 weeks after booster (total 4 weeks)",significant concentration-dependent increase
same,production of an antibody specific to the antigen peptide,"[1]; Example 6: C57BL/6J mice, 20 or 100 μg, Alhydrogel, day 28",promotes the production of an antibody
same,induced antibody binding to the antigen peptide (MTG),"[1]; Example 8: C57BL/6Jx129SVJ mice, 100 μg, Alhydrogel, day 28",induced an antibody that binds to both
same,"tumor size (tumorigenesis), B16F1 melanoma cells",[2],marked inhibition of tumorigenesis; also recorded: marked inhibition of tumor growth
same,expression of mCD31 (angiogenesis marker) in tumor tissue,mCD31,expression of mCD31 was inhibited; also recorded: a tendency to inhibit the expression
same,expression of mTwist1 (epithelial-mesenchymal transition marker) in tumor tissue,mTwist1,dose-dependent expression inhibitory effect; also recorded: significantly inhibited depending on the dose
